Measurements: patent US20030166707A1, “Microsphaeropsin B as novel antibacterial agent, process for producing the same and pharmaceutical composition containing thereof” (priority 2001, published 2003)
Values after ≈ are worked out from the molar mass of the structure shown. Where two headings read alike, the source gives them in different places.

Tests used:
E. faecalis 2322 VRE = assay: MIC, standard microbroth dilution (NCCLS); assay type: cell-based; conditions: Enterococcus faecalis, read-out: Antibacterial activity (MIC)
Experimental: (§1) The compounds of the present invention were tested for minimum inhibitory concentrations (MICs) against the bacteria listed in Table-1 according to the standard microbroth dilution method as described in a NCCLS document. The minimum inhibitory concentrations wer expressed in μg/ml. The test bacteria of 5×10^5 CFU/ml each were subjected to serial dilutions of the test material under aerobic conditions at 35° C. for 18 hours using Mueller Hinton broth. After incubation, the first concentration of wells to show a complete growth inhibition was considered as the MIC.

S. aureus ATCC 29213 = assay: MIC, standard microbroth dilution (NCCLS); assay type: cell-based; conditions: Staphylococcus aureus, read-out: Antibacterial activity (MIC)
Experimental: as §1

S. aureus TN1152MRSA = assay: MIC, standard microbroth dilution (NCCLS); assay type: cell-based; conditions: Staphylococcus aureus, read-out: Antibacterial activity (MIC)
Experimental: as §1

E. faecalis 2353 VSE = assay: MIC, standard microbroth dilution (NCCLS); assay type: cell-based; conditions: Enterococcus faecalis, read-out: Antibacterial activity (MIC)
Experimental: as §1

S. epdermidis ATCC1228 = assay: MIC, standard microbroth dilution (NCCLS); assay type: cell-based; conditions: read-out: Antibacterial activity (MIC)
Experimental: as §1

E. coli ATCC 25922 = assay: MIC, standard microbroth dilution (NCCLS); assay type: cell-based; conditions: Escherichia coli, read-out: Antibacterial activity (MIC)
Experimental: as §1

[1] = Solubility characteristics of isolated Microsphaeropsin B; assay type: physicochemical
[2] = E. faecalis 2322 VRE, 5×10^5 CFU/ml, Mueller Hinton broth, aerobic, 35° C., 18 hours
[3] = ATCC29213, S. aureus ATCC 29213, 5×10^5 CFU/ml, Mueller Hinton broth, aerobic, 35° C., 18 hours
[4] = S. aureus TN1152MRSA, 5×10^5 CFU/ml, Mueller Hinton broth, aerobic, 35° C., 18 hours
[5] = E. faecalis 2353 VSE, 5×10^5 CFU/ml, Mueller Hinton broth, aerobic, 35° C., 18 hours
[6] = S. epdermidis ATCC1228, 5×10^5 CFU/ml, Mueller Hinton broth, aerobic, 35° C., 18 hours
[7] = ATCC25922, E. coli ATCC 25922, 5×10^5 CFU/ml, Mueller Hinton broth, aerobic, 35° C., 18 hours

MIC (E. faecalis 2322 VRE; [2]) [µg/mL]	MIC (S. aureus ATCC 29213; [3]) [µg/mL]	MIC (S. aureus TN1152MRSA; [4]) [µg/mL]	MIC (E. faecalis 2353 VSE; [5]) [µg/mL]	MIC (S. epdermidis ATCC1228; [6]) [µg/mL]	MIC (E. coli ATCC 25922; [7]) [µg/mL]	Behaviour on addition of water ([1]; dissolution in ethanol or dimethyl sulphoxide followed by addition of water)	Solubility ([1]; in 1M sodium hydroxide solution)	Solubility ([1]; in 5% sodium bicarbonate)	Solubility ([1]; in water)	SMILES	MIC (E. faecalis 2322 VRE; VRE, 18 h) [µg/mL]	MIC (S. aureus ATCC 29213; ATCC29213, 18 h) [µg/mL]	MIC (S. aureus TN1152MRSA; TN1152MRSA, 18 h) [µg/mL]	MIC (E. faecalis 2353 VSE; 2353VSE, 18 h) [µg/mL]	MIC (S. epdermidis ATCC1228; 18 h) [µg/mL]	MIC (E. coli ATCC 25922; ATCC25922, 18 h) [µg/mL]
32 (≈ 91.6 µM)	0.062 (≈ 0.177 µM)	8 (≈ 22.9 µM)	0.25 (≈ 0.715 µM)	16 (≈ 45.8 µM)	2 (≈ 5.72 µM)					CC1(C)S[C@@H]2[C@H](NC(=O)[C@H](N)c3ccccc3)C(=O)N2[C@H]1C(=O)O [Ampicillin]						
2 (≈ 5.01 µM)	0.5 (≈ 1.25 µM)	0.5 (≈ 1.25 µM)	1 (≈ 2.5 µM)	1 (≈ 2.5 µM)	> 32	immediate precipitate formation	insoluble	insoluble	insoluble	C/C=C/C=C/C1C=CC2CC(C)CCC2C1(C)C(=O)C1=C(O)C(C(C)O)NC1=O (stereo not shown) [Microsphaeropsin B]						
										CN[C@H](CC(C)C)C(=O)N[C@H]1C(=O)N[C@@H](CC(N)=O)C(=O)N[C@H]2C(=O)N[C@H]3C(=O)N[C@H](C(=O)N[C@H](C(=O)O)c4cc(O)cc(O)c4-c4cc3ccc4O)[C@H](O)c3ccc(c(Cl)c3)Oc3cc2cc(c3O[C@@H]2O[C@H](CO)[C@@H](O)[C@H](O)[C@H]2O[C@H]2C[C@](C)(N)[C@H](O)[C@H](C)O2)Oc2ccc(cc2Cl)[C@H]1O [Vancomycin]	16 (≈ 11 µM)	0.5 (≈ 0.345 µM)	0.25 (≈ 0.173 µM)	0.25 (≈ 0.173 µM)	0.5 (≈ 0.345 µM)	> 32
